System: patients with advanced solid tumors
Experiment: Phase I trial: safety, tolerability, DLT, MTD (CTCAE v4.0)
Format: in vivo
Description: Eligible patients had at least one measurable lesion per RECIST v 1.1, Eastern Cooperative Oncology Group (ECOG) performance status of 0 or 1, and adequate hematological, renal, cardiac and hepatic functions. The primary objectives were to assess safety and tolerability as well as to determine the MTD, DLT, and dose recommended for further study. The secondary objectives were to assess the PK and preliminary efficacy of CT053PTSA.
An initial accelerated titration design was used in the 15 and 30 mg QD cohorts, and the “3+3” schema was used starting in the 60 mg QD cohort. […] The study protocol was approved by an institutional review board at Sun Yat-sen University Cancer Center. Written informed consent was obtained from all the patients before enrollment.
Descriptive statistics of safety are presented per CTCAE v4.0. Subjects who received at least one dose of CT053PTSA were considered eligible to be evaluated and included in safety analyses. […] According to the RECIST 1.1 criteria, imaging examinations were performed at each specified time point in the protocol. The antitumor activity was measured by RECIST1.1.

## Cc1c(C(=O)Nc2ccc(Oc3ccnc4cc(OCC(C)(C)O)ccc34)c(F)c2)c(=O)n(-c2ccccc2)n1C [CT053PTSA]
15mg (n = 1)
  Anaemia, All: 0 n (%)
  Anaemia, ≥ G3: 0 n (%)
  Blood chloride decreased, All: 0 n (%)
  Blood chloride decreased, ≥ G3: 0 n (%)
  Blood creatinine increased, All: 0 n (%)
  Blood creatinine increased, ≥ G3: 0 n (%)
  Blood potassium decreased, All: 0 n (%)
  Blood potassium decreased, ≥ G3: 0 n (%)
  Blood sodium decreased, All: 0 n (%)
  Blood sodium decreased, ≥ G3: 0 n (%)
  Blood uric acid increased, All: 0 n (%)
  Blood uric acid increased, ≥ G3: 0 n (%)
  Decreased appetite, All: 0 n (%)
  Decreased appetite, ≥ G3: 0 n (%)
  Diarrhea, All: 0 n (%)
  Diarrhea, ≥ G3: 0 n (%)
  Dizziness, All: 0 n (%)
  Dizziness, ≥ G3: 0 n (%)
  Dry mouth, All: 0 n (%)
  Dry mouth, ≥ G3: 0 n (%)
  Electrocardiogram QT prolonged, All: 0 n (%)
  Electrocardiogram QT prolonged, ≥ G3: 0 n (%)
  Electrolyte imbalance, All: 0 n (%)
  Electrolyte imbalance, ≥ G3: 0 n (%)
  Hemoglobin decreased, All: 0 n (%)
  Hemoglobin decreased, ≥ G3: 0 n (%)
  Hypertension, All: 0 n (%)
  Hypertension, ≥ G3: 0 n (%)
  Hyponatremia, All: 0 n (%)
  Hyponatremia, ≥ G3: 0 n (%)
  Hypoparathyroidism, All: 0 n (%)
  Hypoparathyroidism, ≥ G3: 0 n (%)
  Mouth ulceration, All: 0 n (%)
  Mouth ulceration, ≥ G3: 0 n (%)
  Nausea, All: 0 n (%)
  Nausea, ≥ G3: 0 n (%)
  Oropharyngeal pain, All: 0 n (%)
  Oropharyngeal pain, ≥ G3: 0 n (%)
  Pain, All: 0 n (%)
  Pain, ≥ G3: 0 n (%)
  Palmar-plantar erythrodysaesthesia syndrome, All: 0 n (%)
  Palmar-plantar erythrodysaesthesia syndrome, ≥ G3: 0 n (%)
  Platelet count decreased, All: 0 n (%)
  Platelet count decreased, ≥ G3: 0 n (%)
  Proteinuria, All: 0 n (%)
  Proteinuria, ≥ G3: 0 n (%)
  Pyrexia, All: 0 n (%)
  Pyrexia, ≥ G3: 0 n (%)
  Sinus bradycardia, All: 0 n (%)
  Sinus bradycardia, ≥ G3: 0 n (%)
  Stomatitis, All: 0 n (%)
  Stomatitis, ≥ G3: 0 n (%)
  Vomiting, All: 0 n (%)
  Vomiting, ≥ G3: 0 n (%)
  leukopenia, All: 1 (100) n (%)
  leukopenia, ≥ G3: 0 n (%)
  neutropenia, All: 0 n (%)
  neutropenia, ≥ G3: 0 n (%)
  transaminase elevation, All: 1 (100) n (%)
  transaminase elevation, ≥ G3: 0 n (%)
30mg (n = 1)
  Anaemia, All: 0 n (%)
  Anaemia, ≥ G3: 0 n (%)
  Blood chloride decreased, All: 0 n (%)
  Blood chloride decreased, ≥ G3: 0 n (%)
  Blood creatinine increased, All: 0 n (%)
  Blood creatinine increased, ≥ G3: 0 n (%)
  Blood potassium decreased, All: 0 n (%)
  Blood potassium decreased, ≥ G3: 0 n (%)
  Blood sodium decreased, All: 0 n (%)
  Blood sodium decreased, ≥ G3: 0 n (%)
  Blood uric acid increased, All: 0 n (%)
  Blood uric acid increased, ≥ G3: 0 n (%)
  Decreased appetite, All: 1 (100) n (%)
  Decreased appetite, ≥ G3: 0 n (%)
  Diarrhea, All: 0 n (%)
  Diarrhea, ≥ G3: 0 n (%)
  Dizziness, All: 0 n (%)
  Dizziness, ≥ G3: 0 n (%)
  Dry mouth, All: 0 n (%)
  Dry mouth, ≥ G3: 0 n (%)
  Electrocardiogram QT prolonged, All: 0 n (%)
  Electrocardiogram QT prolonged, ≥ G3: 0 n (%)
  Electrolyte imbalance, All: 0 n (%)
  Electrolyte imbalance, ≥ G3: 0 n (%)
  Hemoglobin decreased, All: 0 n (%)
  Hemoglobin decreased, ≥ G3: 0 n (%)
  Hypertension, All: 0 n (%)
  Hypertension, ≥ G3: 0 n (%)
  Hyponatremia, All: 1 (100) n (%)
  Hyponatremia, ≥ G3: 0 n (%)
  Hypoparathyroidism, All: 0 n (%)
  Hypoparathyroidism, ≥ G3: 0 n (%)
  Mouth ulceration, All: 0 n (%)
  Mouth ulceration, ≥ G3: 0 n (%)

Reference: PMC9632963, “Preclinical characterization and phase I clinical trial of CT053PTSA targets MET, AXL, and VEGFR2 in patients with advanced solid tumors” (Frontiers in Immunology, 2022)
